This note sets out measurements from patent publication US4956362A, “Use of carpipramine for the treatment of anxiety and sleep disorders” (Rhone-Poulenc Sante, a French Body Corporate, priority 1988, dated 1990).

Series [1] has as its target T1, central serotonin receptor sites (type S2) (Rattus norvegicus, UniProt P14842).
T1 construct: central serotonin receptor sites (type S2); from tissue; the cited Leysen 1982 method used rat prefrontal/frontal cortex, own knowledge
As to the kind of experiment: Affinity for central serotonin receptor sites (type S2), tritiated ketanserin binding. As to the method:
The affinity of carpipramine for central serotonin receptor sites (type S2) was determined by a technique based on that of J. E. LEYSEN et al., Mol. Pharmacol. 21, 301 (1982), which consists in measuring the affinity of the product for binding sites for tritiated ketanserin. In this test, the IC50 of carpipramine is 3 nM.

Series [2] concerns mescaline-induced heat twitches. Briefly: Antagonism of mescaline-induced heat twitches in mice. The conditions noted are these: Mus musculus, sc, subcutaneously administered, read-out: AD50 (the source's name). It is filed as in vivo. As to the method: In this test, the AD50 of subcutaneously administered carpipramine is 8 mg/kg.
The subject of another series is mice. As to the kind of experiment: Acute oral toxicity in mice. To be noted: mouse, in vivo.
The nature of series [3]: Acute oral toxicity in mice. The conditions noted are these: mouse, in vivo, po; administered orally in mice.

T1 sequence (P14842 whole entry): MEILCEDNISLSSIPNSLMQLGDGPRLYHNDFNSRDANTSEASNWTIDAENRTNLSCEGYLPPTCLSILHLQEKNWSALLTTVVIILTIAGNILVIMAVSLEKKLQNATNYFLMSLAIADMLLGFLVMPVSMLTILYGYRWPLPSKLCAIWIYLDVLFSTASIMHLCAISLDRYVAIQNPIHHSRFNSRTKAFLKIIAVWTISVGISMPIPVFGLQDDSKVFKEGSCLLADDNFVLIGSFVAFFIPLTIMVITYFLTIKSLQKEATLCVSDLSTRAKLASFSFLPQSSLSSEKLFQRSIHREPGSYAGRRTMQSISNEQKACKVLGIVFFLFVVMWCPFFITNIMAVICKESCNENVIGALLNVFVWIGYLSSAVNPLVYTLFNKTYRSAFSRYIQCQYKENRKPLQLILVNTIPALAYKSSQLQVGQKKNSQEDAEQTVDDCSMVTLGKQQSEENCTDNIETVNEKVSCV

Usually IC50 stands for the concentration at which inhibition is half-maximal. A low value points to higher potency. By LD50 is commonly meant the dose at which mortality reaches 50%. Regarding `NC(=O)C1(N2CCCCC2)CCN(CCCN2c3ccccc3CCc3ccccc32)CC1` [carpipramine, 5-[3-(4-carbamoyl-4-piperidinopiperidino)-1-propyl]-10,11-dihydrodibenz[b,f]azepine], the half-inhibitory concentration (IC50) in series [1] came to 3 nM. Moreover, the ED50 in series [2] came out at 8 mg/kg. In addition, the toxicity result in the series on mice is given as “low toxicity”. In addition, the LD50 in series [3] was determined as 250 mg/kg.
